Data on 3 compounds can be found in patent US20210205238A1, “STABILIZED INJECTABLE PHARMACEUTICAL COMPOSITION OF L-EPINEPHRINE” (MERCK PATENT GMBH, priority 2017, published 2021).

Where a name gives a salt, the structure may show the parent alone.

Data set [1] is described as follows: HPIC for determination of sodium metabisulfite as sulfite in stored formulations. The format is physicochemical. As to conditions: after 28 days at 60° C., senior formulation 1.1 mg/mL. The procedure: Epinephrine formulations were diluted 1:100 (formulations with 1.67 mg/mL Na2S2O5), 1:50 (formulations with 0.95 mg/mL and 0.48 mg/mL Na2S2O5) and 1:25 (formulation with 0.16 mg/mL Na2S2O5) in water containing 0.37% formaldehyde. Chromatographic separation was conducted on a Dionex Ion chromatograph ICS3000. 50 μl sample were applied on a HPIC column (AS4aSC, 4 mm×250 mm Thermo Scientific) using a guard column (AG4aSC, 4 mm×50 mm Thermo Scientific). Chromatographic separation was conducted in Eluent A (1.3 mM sodium hydrogen carbonate and 1.4 mM sodium carbonate in water) at 30° C. over 20 min at a flow rate of 2 mL/min. Conductivity detection with suppressor technology was used at a cell temperature of 35° C.

For data set [2] the following is noted: sulfonic acid derivative formed by reaction of epinephrine with sodium bisulfite; cited from earlier work.
For data set [3] the following is noted: senior formulations 1.1 mg/mL, E:S 0.34, pH 3.9, 60° C., 28 days; vs epinephrine base.

On to `O=S([O-])S(=O)(=O)[O-].[Na+].[Na+]` [sodium metabisulfite], for which the “sodium metabisulfite starting content degraded” value in data set [1] (at E:S=1.2) is > 70%; in data set [1] (at E:S=3), > 90%.

With `CNCC(c1ccc(O)c(O)c1)S(=O)(=O)O` (stereo not shown) [ESA, epinephrine sulfonic acid], in data set [2], the biological activity result is “biologically inactive”.

Consider `CNC[C@H](O)c1ccc(O)c(O)c1` [epinephrine tartrate], for which, in data set [3], the D-enantiomer formation entry was “significantly reduced”.
